In US9828630B2, “Methods of enhancing genetic diagnosis” (BioLamina AB, priority 2011, dated 2017):

Key:
[1] = system: SCID mouse; experiment: Teratoma formation in SCID mice; format: in vivo; details: HS181 13, H1 12 passages in O3; H1 7 passages in TeSR2
Procedure: Teratoma formation experiments were performed by implantation of approximately 10^6 cells beneath the testicular capsule of a young (7-week-old) severe combined immunodeficiency (SCID) mouse. Three animals per each cell line were used. Teratoma growth was observed by weekly palpation, and the mice were sacrificed eight weeks after the implantation. The teratomas were fixed, and sections were stained with hematoxylin and eosin (HE) or with hematoxylin, eosin and PAS (HE-PAS). […] All animal experiments were performed at the infection-free animal facility of the Karolinska University Hospital in accordance with ethical committee approval.

[2] = system: human ES cells; experiment: Cell survival assay, 24 hours (1 day) after plating from single cell suspension; format: cell-based; details: 10 μM Y-27632, 40,000 cells per 1 cm^2, 24 hours
[3] = system: hES cells; experiment: In vivo imaging and migration assay; format: cell-based, human
Procedure: 24-well plates were coated by extracellular matrix proteins and blocked by O3 medium containing bovine serum albumin. The ES cells were plated at cell density of 30,000-40,000 cells/cm^2 onto extracellular matrix-coated plates and left to adhere for half an hour in a cell incubator. After that, the plate was transferred into high content imaging system Operetta (PerkinElmer) equipped with environmental control unit, which allowed to keep 37° C., 5% CO2. For two movies that were made, the brightfield images were taken once in 15 minutes during 24 hours after plating using Harmony software (PerkinElmer), exported, and analyzed using ImageJ software (NIH, the US). For migration assay the images were taken every seven minutes during 18 hours after plating. Images acquired between the fifth and seventh hours after plating were analyzed using MTrackJ plug-in (University Medical Center, Rotterdam, The Netherlands). 100 attached cells on each coating were traced and mean distances from the current to the previous point of the track were calculated. Error bars show standard error of the mean s.e.m. (n=100).

[4] = system: human ES and iPS cells; experiment: Long-term culture with single cell dissociation passaging; format: cell-based; details: for proliferation rate / increase in number of cells compared with Matrigel or classical methods: FIG. 8; for passages proliferated: O3 medium
Procedure: Human ES cells were cultured on r-laminin-521-coated laboratory dishes in chemically defined O3 medium (described in Rodin et al., Nature Biotechnol., vol. 28, pp. 611-615 (2010)) at 37° C. in 5% CO2. Cells were routinely passed once every 10-12 days by exposure to Trypsin-EDTA solution (GIBCO Invitrogen) for 5 minutes at 37° C. They were then gently pipetted to break into single-cell suspension and defined trypsin inhibitor (GIBCO Invitrogen) was added. The cell suspension was centrifuged […], the supernatant discarded, the cell pellet resuspended in prewarmed O3 medium, and cells were then passed through a 40 μm sieve. After that cells were plated on new r-laminin-521-coated dishes at a concentration 30 Kcells/cm^2 (1:25-1:30 split ratio). Cells were fed once a day with fresh medium prewarmed in an incubator for 1 hour, except for the first day after a passage, when only a few drops of fresh medium were added. Control cells of the same line were cultured on Matrigel (BD Biosciences) in O3 medium as described in Rodin et al., Nature Biotechnol., vol. 28, pp. 611-615 (2010). Control cells were passaged in pieces.
Human ES cells of HS181 and HS401 were cultured on LN-521-coated culture dishes in O3 medium (described in Rodin et al., Nature Biotechnol., vol. 28, pp. 611-615 (2010) with pH was adjusted to 7.35), mTeSR1 (STEMCELL Technologies) and chemically defined and xeno-free TeSR2 (STEMCELL Technologies) at 37° C., 5% CO2. Initially, cells of the lines were transferred onto a LN-521 coating from a human feeder cell layer by careful scratching using a sterile knife with subsequent trypsinization, or the cells were trypsinized into single cell suspension from a LN-511 coating. The cells were provided once a day with fresh medium pre-warmed in an incubator for one hour, except for the first day after plating, when only a few drops of fresh medium were added. Cells were routinely passed once in 10-12 days by exposure to Trypsin/EDTA (GIBCO Invitrogen Corporation, Paisley, Scotland) for 5 minutes at 37° C., 5% CO2. They were then gently pipetted to break into single-cell suspension and a Defined Trypsin Inhibitor (GIBCO Invitrogen) was added. The cell suspension was centrifuged at 25 rcf for 4 minutes, the supernatant was discarded, the cell pellet was resuspended in prewarmed O3 medium, and the cells were then passed through a 40 μm sieve. Subsequently, the cells were plated on new LN-521-coated dishes at a concentration of 30,000 cells/cm^2 in 1:25-1:30 split ratios. Control cells of the same line were cultured on Matrigel (STEMCELL Technologies) and LN-511 in O3 medium as described previously.^9
For defined and xeno-free cultures, TeSR2 (STEMCELL Technologies) medium and defined free from any animal derived component TrypLE™ Select (GIBCO Invitrogen Corporation, Paisley, Scotland) enzyme were used. The cells were passed every 10-14 days by exposure to TrypLE™ Select for 4-5 minutes at 37° C., 5% CO2. Then, the enzyme was carefully aspirated and prewarmed TeSR2 medium was added. After that, the cells were gently pipetted to break into single-cell suspension, centrifuged, the supernatant was discarded, and the cell pellet was resuspended in prewarmed TeSR2. The cells were then passed through a 40 μm sieve and plated on a fresh LN-521 coated dish.

[5] = system: human ES cells; experiment: Real-time quantitative RT-PCR / marker expression of pluripotency and differentiation markers; format: cell-based
Procedure: Total RNA was isolated and cDNA was synthesized as described in Rodin et al., Nature Biotechnol., vol. 28, pp. 611-615 (2010). Real-time quantitative RT-PCR Taqman assays were performed using the Applied Biosystems 7300 Real-Time PCR System. All reactions were done in quadruplicate with predeveloped gene expression assay mix (Applied Biosystems) containing primers and a probe for the mRNA of interest. Additional reactions for each experiment included predeveloped gene expression assay mix for GAPDH, used to normalize the RNA input. All data were analyzed with 7300 System SDS Software version 1.4.
Total RNA was isolated using Absolutely RNA Microprep Kit (Stratagene, La Jolla Calif., www.stratagene.com) according to the manufacturer's instructions. cDNA was synthesized using 0.2 μg of total RNA in 20 μl reaction mixture, containing oligo(dT)12-18 primers and Superscript II reverse transcriptase (GIBCO Invitrogen Corporation), according to the manufacturer's instructions. Real-time quantitative RT-PCR Taqman assays were performed using the Applied Biosystems 7300 Real-Time PCR System (Applied Biosystems, Foster City, Calif.). All reactions were done in quadruplicates with the use of a pre-developed gene expression assay mix (Applied Biosystems) containing primers and a probe for the mRNA of interest. […] All data was analyzed with 7300 System SDS Software v 1.4.

LN-521: protein formed by joining laminin α5, β2 and γ1 chains; human recombinant, produced in HEK293 cells
tissues in teratomas formed in SCID mice [1]: all three germ lineages | survival of Y-27632 treated cells compared with Matrigel [2]: survived better | cell migration compared with Matrigel (imaging) ([3]; 24 hours imaging): much faster | motility of hES cells compared with other coatings ([3]; between fifth and seventh hours after plating, FIG. 14): higher | passages cultured ([4]; ChiPSW iPS cells, mTeSR1): 3 passages | robust proliferation with stable and high rate ([4]; Example 1, O3 medium, 1:25 to 1:30, 3 months): at least 9 passages | proliferation rate / increase in number of cells compared with Matrigel or classical methods [4]: much faster rate | proliferation rate / increase in number of cells compared with Matrigel or classical methods ([4]; listed as laminin-521): higher rate | passages proliferated ([4]; H1 cells, 6 months): ≥ 15 passages | passages proliferated ([4]; HS181 cells, 9 months): at least 24 passages | passages proliferated ([4]; HS401 cells, 2 months): ≥ 5 passages | passages to undergo the same number of cell doublings as 20 passages (100 days / 3 months) by conventional methods on Matrigel ([4]; single cell suspension passaging, 1 month): 3 passages | number of mRNA transcripts of pluripotency markers Oct4 and Nanog compared with Matrigel ([5]; FIG. 11): higher numbers of transcripts | expression levels of pluripotency markers Oct4, Nanog and SSEA4 ([5]; similar to cells on Matrigel passed as small clumps): stable expression levels
